Source: US20140135357A1, “DOSE REGIME FOR CAMPTOTHECIN DERIVATIVES” (Taiwan Liposome Company, Ltd., priority 2012, published 2014)
Where two headings read alike, the source gives them in different places.

Legend:
[1] = human, in vivo
Description: (§1) A non-randomized phase I clinical trial was conducted at 4 institutions in the US and Taiwan.
(§2) Patients were included in this trial if they are over the age of 18, with advanced cancer and the ECOG performance status is 0 or 1. […] Patients were excluded from the study if they have previously received more than 3 regimens of chemotherapy, or if they have received chemotherapy or radiotherapy within 4 weeks of the trial recruitment.
(§3) Eligible patients were given the pharmaceutical composition of the present invention, comprising a mixture of TLC388HCl and mPEG2000-DSPE in a molar ratio of 1:0.7 to 1:0.9 (known as Lipotecan®). […] The pharmaceutical composition was administered as a 30-min IV infusion, on days 1, 8, and 15 of a 28-day cycle (i.e. 3 IV infusions per 28-day cycle).
(§4) Serum samples were collected from the patients for pharmacokinetic analysis on day 1, day 8 and day 15 of Cycles 1 and 2, at the following times:
(§5) Post IV infusion: (Day 1 and 8 of Cycle 1): 33 min; 40 min; 50 min; 1 h; 1 h 30 min; 2 h; 4 h and 8 h. Post IV infusion (Day 15 of Cycle 1 and Day 1, 8, and 15 of Cycle 2): 4 h. Patients were assessed every 8 weeks, after 2 cycles of treatments.
(§6) During the 2-cycle study period, the patients were examined regularly for the following outcomes: • Side effect/DLT; • The pK profiles of the (S,S) and (S,R) diastereomers of TLC388HCl, its 3 metabolites (TLC-U1, TLC-U2 and Topotecan) on day 1 and day 8 of the treatment cycle; and • Anti-cancer efficacy.

topoisomerase I = biological target: T1, topoisomerase I (Homo sapiens, UniProt P11387); experiment: Topoisomerase I inhibition; type: biochemical
T1 sequence (P11387 1-765): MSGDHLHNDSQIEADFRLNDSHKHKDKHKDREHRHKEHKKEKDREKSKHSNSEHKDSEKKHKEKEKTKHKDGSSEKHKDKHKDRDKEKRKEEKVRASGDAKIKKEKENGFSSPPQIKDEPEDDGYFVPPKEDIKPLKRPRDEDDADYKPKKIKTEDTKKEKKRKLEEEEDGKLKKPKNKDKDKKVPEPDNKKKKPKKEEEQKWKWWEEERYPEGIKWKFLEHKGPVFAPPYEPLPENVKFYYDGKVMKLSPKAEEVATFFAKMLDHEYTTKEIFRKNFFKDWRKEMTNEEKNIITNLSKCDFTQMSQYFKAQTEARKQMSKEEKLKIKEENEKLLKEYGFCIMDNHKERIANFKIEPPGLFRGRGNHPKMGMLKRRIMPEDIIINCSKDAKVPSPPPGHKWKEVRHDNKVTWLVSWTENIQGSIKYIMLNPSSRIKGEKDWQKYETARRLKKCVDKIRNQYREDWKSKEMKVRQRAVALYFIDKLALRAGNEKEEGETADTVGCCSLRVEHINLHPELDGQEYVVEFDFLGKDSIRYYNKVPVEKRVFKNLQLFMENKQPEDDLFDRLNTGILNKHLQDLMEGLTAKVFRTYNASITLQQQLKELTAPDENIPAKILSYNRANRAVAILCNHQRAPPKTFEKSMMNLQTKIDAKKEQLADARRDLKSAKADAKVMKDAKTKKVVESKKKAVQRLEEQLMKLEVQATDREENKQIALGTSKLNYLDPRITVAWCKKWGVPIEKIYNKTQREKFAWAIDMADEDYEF

clinical = conditions: human, in vivo
Description: as §1, §2, §3, §4, §5, §6

## CC[C@@]1(OC(=O)[C@@H](C)O)C(=O)OCc2c1cc1n(c2=O)Cc2cc3c(CN(C)C)c(O)ccc3nc2-1 [TLC-U1, S,R-topotecan lactate]
[1]
  Cmax and AUCo-t of TLC-U1 relative to TLC-U2: 3-4 times
  Cmax and AUCo-t of TLC-U1 relative to topotecan: approximately 2 times
  Dose-normalized AUClast: 14.49 ± 4.46 nM*h/(mg/m^2)
  Dose-normalized Cmax: 10.15 ± 3.87 nM/(mg/m^2)
  difference between PK profiles on Day 1 and Day 8: no significant difference
  dose proportionality of exposure: roughly dose proportional
[1]; 1.5 mg/m2
  AUC0-t: 10.869 (1.365) hr · ng/mL
  Cmax: 6.897 (1.325) ng/mL
  Tmax: 0.483 (0.000) hr
  t1/2: 2.687 (0.329) hr
[1]; 3 mg/m2
  AUC0-t: 16.705 (4.893) hr · ng/mL
[1]; 6 mg/m2
  AUC0-t: 46.533 (10.74) hr · ng/mL
[1]; 9 mg/m2
  AUC0-t: 54.481 (10.70) hr · ng/mL
[1]; 20 mg/m2
  AUC0-t: 101.46 (37.00) hr · ng/mL
[1]; 30 mg/m2
  AUC0-t: 190.59 (33.45) hr · ng/mL
[1]; 35 mg/m2
  AUC0-t: 406.54 (77.86) hr · ng/mL
  Cmax: 327.75 (216.8) ng/mL
  Tmax: 0.546 (0.087) hr
  t1/2: 4.064 (1.658) hr
[1]; 40 mg/m2
  AUC0-t: 285.94 (207.9) hr · ng/mL
[1]; 50 mg/m2
  AUC0-t: 349.27 (131.8) hr · ng/mL
[1]; 60 mg/m2
  AUC0-t: 417.98 (54.75) hr · ng/mL
[1]; iv
  time at which peak plasma concentrations (Cmax) were achieved: within one hour
  time of rapid rise of the metabolites in the serum after starting the infusion: ≤ 15 min
Topoisomerase I
  topoisomerase I inhibition: weak topoisomerase I Inhibitors
clinical; 1.5 mg/m2, AUC0-t
  AUC0-t: 13 ng·h/mL
clinical; 1.5 mg/m2, Cmax
  Cmax: 11.2 ng/mL
clinical; 1.5 mg/m2, Tmax
  Tmax: 37.7 min
clinical; 1.5 mg/m2, t1/2
  half-life: 168 min
clinical; 3 mg/m2, AUC0-t
  AUC0-t: 24.6 ng·h/mL
clinical; 3 mg/m2, Cmax
  Cmax: 17.1 ng/mL
clinical; 3 mg/m2, Tmax
  Tmax: 28 min
clinical; 3 mg/m2, t1/2
  half-life: 159 min
clinical; 6 mg/m2, AUC0-t
  AUC0-t: 44.3 ng·h/mL
clinical; 6 mg/m2, Cmax
  Cmax: 28.5 ng/mL
clinical; 6 mg/m2, Tmax
  Tmax: 28 min
clinical; 6 mg/m2, t1/2
  half-life: 174 min
clinical; 9 mg/m2, AUC0-t
  AUC0-t: 48.6 ng·h/mL
clinical; 9 mg/m2, Cmax
  Cmax: 37.8 ng/mL
clinical; 9 mg/m2, Tmax
  Tmax: 33.8 min
clinical; 9 mg/m2, t1/2
  half-life: 221 min
clinical; 13.5 mg/m2
  AUC0-t: 99.1 ng·h/mL
  Cmax: 56.3 ng/mL
  Tmax: 18.5 min
  half-life: 171 min
clinical; 20 mg/m2, AUC0-t
  AUC0-t: 112 ng·h/mL
clinical; 20 mg/m2, Cmax
  Cmax: 87.4 ng/mL
clinical; 20 mg/m2, Tmax
  Tmax: 24.3 min
clinical; 20 mg/m2, t1/2
  half-life: 177 min
clinical; 30 mg/m2, AUC0-t
  AUC0-t: 163 ng·h/mL
clinical; 30 mg/m2, Cmax
  Cmax: 105 ng/mL
clinical; 30 mg/m2, Tmax
  Tmax: 27.2 min
clinical; 30 mg/m2, t1/2
  half-life: 160 min
clinical; 35 mg/m2, AUC0-t
  AUC0-t: 340 ng·h/mL
clinical; 35 mg/m2, Cmax
  Cmax: 196 ng/mL
clinical; 35 mg/m2, Tmax
  Tmax: 38.3 min
clinical; 35 mg/m2, t1/2
  half-life: 320 min
clinical; 40 mg/m2, AUC0-t
  AUC0-t: 283 ng·h/mL
clinical; 40 mg/m2, Tmax
  Tmax: 23.5 min
clinical; 40 mg/m2, t1/2
  half-life: 177 min
clinical; 50 mg/m2, AUC0-t
  AUC0-t: 365 ng·h/mL
clinical; 50 mg/m2, Cmax
  Cmax: 242 ng/mL
clinical; 50 mg/m2, Tmax
  Tmax: 26.2 min
clinical; 50 mg/m2, t1/2
  half-life: 174 min
clinical; 60 mg/m2, AUC0-t
  AUC0-t: 421 ng·h/mL
clinical; 60 mg/m2, Cmax
  Cmax: 347 ng/mL
clinical; 60 mg/m2, Tmax
  Tmax: 21.4 min
clinical; 60 mg/m2, t1/2
  half-life: 174 min
clinical; 60 mg/m2, tmax
  Tmax: 27 ± 10.2 min
clinical; T1/2
  half-life: > 150 min
clinical; Tmax
  Tmax: < 60 min
